In the NIST ThermoML archive (doi:10.1021/je700329a):
“And” between values parts separate entries of the source, which are not always exact repeats. Equal entries are not always repeated. ± gives the expanded uncertainty stated by the source.

Legend:
[1] = wn = mass fraction of the nth substance listed; settings: 101 kPa, Liquid; for electrical conductivity: Alternating current cell with electrodes; for kinematic viscosity: Capillary tube (Ostwald / Ubbelohde) method; for speed of sound: Pulse-echo method; for mass density: Vibrating tube method
[2] = 101.33 kPa, Liquid; for viscosity: Stabinger Viscometer; for mass density: Vibrating tube method; for speed of sound: DSA 5000; for electrical conductivity: Alternating current cell with electrodes

CCCCCC[n+]1ccn(C)c1.O=S(=O)([N-]S(=O)(=O)C(F)(F)F)C(F)(F)F + O
[1]
Settings | electrical conductivity [S/m] | kinematic viscosity [m2/s] | mass density [kg/m3] | speed of sound [m/s]
288.15 K, w2 = 1e-05 | 0.135 ± 0.006 | – | – | –
288.15 K, w2 = 0.00094 | 0.142 ± 0.006 | – | – | –
293.15 K, w2 = 1e-05 | 0.173 ± 0.007 | – | – | –
293.15 K, w2 = 2e-05 | – | 6.53e-05 ± 1.5e-06 | – | –
293.15 K, w2 = 0.00094 | 0.18 ± 0.007 | – | – | –
293.15 K, w2 = 0.0011 | – | 6.16e-05 ± 1.3e-06 | – | –
293.15 K, w2 = 0.00727 | 0.232 ± 0.01 | – | – | –
293.15 K, w2 = 0.00784 | 0.237 ± 0.01 | – | – | –
293.15 K, w2 = 0.0082 | – | 4.55e-05 ± 1e-06 | – | –
293.15 K, w2 = 0.00898 | 0.246 ± 0.01 | – | – | –
298.15 K, w2 = 1e-05 | 0.218 ± 0.009 | 5.12e-05 ± 1.2e-06 | – | –
298.15 K, w2 = 2e-05 | – | 5.13e-05 ± 1.2e-06 | – | –
298.15 K, w2 = 3.5e-05 | – | – | 1372.07 ± 2 | 1226.6 ± 1.2
298.15 K, w2 = 0.00094 | 0.227 ± 0.009 | – | – | –
298.15 K, w2 = 0.00102 | – | – | 1370.45 ± 2 | –
298.15 K, w2 = 0.00106 | – | – | – | 1227.4 ± 1.2
298.15 K, w2 = 0.00112 | – | 4.85e-05 ± 1.1e-06 | – | –
298.15 K, w2 = 0.00722 | – | – | 1367.04 ± 2 | –
298.15 K, w2 = 0.00727 | 0.289 ± 0.012 | – | – | –
298.15 K, w2 = 0.007315 | – | – | – | 1230.3 ± 1.2
298.15 K, w2 = 0.00784 | 0.295 ± 0.012 | – | – | –
298.15 K, w2 = 0.00819 | – | 3.63e-05 ± 8.3e-07 | – | –
298.15 K, w2 = 0.00898 | 0.306 ± 0.012 | – | – | –
308.15 K, w2 = 1e-05 | 0.328 ± 0.013 | – | – | –
308.15 K, w2 = 0.00094 | 0.34 ± 0.014 | – | – | –
323.15 K, w2 = 1e-05 | 0.548 ± 0.022 | – | – | –
323.15 K, w2 = 0.00094 | 0.566 ± 0.023 | – | – | –

CCCCCC[n+]1ccn(C)c1.O=S(=O)([N-]S(=O)(=O)C(F)(F)F)C(F)(F)F
[2]
Settings | electrical conductivity [S/m] | mass density | speed of sound | viscosity
258.15 K | – | 1407.6 ± 0.2 kg/m3 | – | 941.8 ± 19 mPa·s
263.15 K | – | 1403.1 ± 0.2 kg/m3 | – | 612.7 ± 12 mPa·s
268.15 K | – | 1398.5 ± 0.2 kg/m3 | – | 417.4 ± 8.5 mPa·s
273.15 K | – | 1394 ± 0.2 kg/m3 | – | 291.2 ± 5.9 mPa·s
278.15 K | – | 1389.5 ± 0.2 kg/m3 | – | 207.6 ± 4.2 mPa·s
283.15 K | – | 1385 ± 0.2 kg/m3 and 1385.9 ± 0.2 kg/m3 and 1386 ± 0.2 kg/m3 | 1262 ± 1 m/s and 1262.4 ± 1 m/s | 153.3 ± 3.1 mPa·s
288.15 K | 0.135 ± 0.006 | 1380.5 ± 0.2 kg/m3 | – | 115.8 ± 2.3 mPa·s
293.15 K | 0.173 ± 0.007 | 1376.7 ± 0.2 kg/m3 [middle of 4 runs] | 1238.4 ± 1 m/s and 1238.5 ± 1 m/s | 89.54 ± 1.8 mPa·s and 89.26 ± 1.8 mPa·s
298.15 K | 0.218 ± 0.009 | 1372.1 ± 0.2 kg/m3 [middle of 4 runs] | 1226.8 ± 1 m/s and 1226.9 ± 1 m/s | 70.09 ± 1.4 mPa·s and 70.29 ± 1.4 mPa·s
303.15 K | – | 1367.3 ± 0.2 kg/m3 and 1367.5 ± 0.2 kg/m3 and 1367.6 ± 0.2 kg/m3 | 1215.5 ± 1 m/s and 1215.6 ± 1 m/s | 56.11 ± 1.1 mPa·s
308.15 K | 0.328 ± 0.013 | – | – | –
313.15 K | – | 1358.3 ± 0.2 kg/m3 and 1358.4 ± 0.2 kg/m3 | 1193.3 ± 1 m/s and 1193.4 ± 1 m/s | 37.41 ± 0.75 mPa·s
323.15 K | 0.548 ± 0.022 | 1349.3 ± 0.2 kg/m3 and 1349.4 ± 0.2 kg/m3 | 1171.5 ± 1 m/s and 1171.6 ± 1 m/s | 26.25 ± 0.53 mPa·s
333.15 K | – | 1340.3 ± 0.2 kg/m3 and 1340.4 ± 0.2 kg/m3 | 1149.8 ± 1 m/s and 1150.4 ± 1 m/s | 19.22 ± 0.39 mPa·s
343.15 K | – | 1331.3 ± 0.2 kg/m3 and 1331.4 ± 0.2 kg/m3 | 1128.4 ± 1 m/s and 1129.6 ± 1 m/s | 14.58 ± 0.29 mPa·s
353.15 K | – | 1322.5 ± 0.2 kg/m3 | – | 11.38 ± 0.23 mPa·s
363.15 K | – | 1313.6 ± 0.2 kg/m3 | – | 9.128 ± 0.18 mPa·s
373.15 K | – | 1304.8 ± 0.2 kg/m3 | – | 7.463 ± 0.15 mPa·s
